# Assay results as given in US8361970B2, “Growth factor binding molecules” (University of South Florida, priority 2000, dated 2013).
# Where two headings read alike, the source gives them in different places.
# Columns and labels:
# [1] = system: PDGF-stimulated PDGFR tyrosine phosphorylation; assay: Inhibition of PDGF-stimulated PDGFR tyrosine phosphorylation in NIH 3T3 cells (anti-phosphotyrosine Western blot); type: cell-based; conditions: concentrations as high as 10 mM
# [2] = system: VEGF-stimulated Flk-1 tyrosine phosphorylation; assay: Inhibition of VEGF-stimulated Flk-1 tyrosine phosphorylation in Flk-1/3T3 cells; type: cell-based
# Experimental: Starved NIII 3T3 cells (PDGF-BB and PDGF-AA), NIH 3T3 cells overexpressing either EGFR (EGF) or Flk-1 (VEGF) are pre-treated with the indicated concentrations of GFB-111 for 5 minutes before 10 minutes of stimulation with PDGF-BB (10 ng/ml), PDGF-AA (10 ng/ml), EGF (100 ng/ml) and VEGF (50 ng/ml). Cell lysates are run on SDS-PAGE gels, then transferred to nitrocellulose and Western blotted with anti-phosphotyrosine (4G 10) or anti-phosphorylated Erk1/Erk2 (New England Biolabs).
# In order to identify molecules that would bind vascular endothelial growth factor (VEGF), Flk-1/3T3 cell-based assay is used that relies on VEGF-stimulation of its receptor, Flk-1, tyrosine phosphorylation and subsequent MAP-kinase activation. The assay used herein identical to that used for PDGF, except that NIH 3T3 cells that overexpress Flk-1 are used. GFB-116, which has four identical loops with the sequence GKGK (SEQ ID NO. 10) is shown to be very potent and selective toward blocking the ability of VEGF to stimulate Flk-1 tyrosine phosphorylation and subsequent MAP-kinase activation as measured by phospho erk-1 and erk-2 also referred to in the Table as p42 and p44 (Table 4A). A preferred embodiment of the invention is a compound that binds to a vascular endothelial growth factor, of the general structure III (above) in which R is n-butyl, n-propyl, or benzyl, and X comprise covalently attached identical cyclic peptide loops wherein R1, R2, R3, and R4 are each amino acid side chains, as broadly defined above, that define a tetrapeptide sequence, wherein said tetrapeptide is covalently attached at the amino and carboxy termini of said tetrapeptide to 3-aminomethyl-5-aminobenzamide linking group, and wherein said tetrapeptide sequence is GKGK (SEQ ID NO. 10), GDGY (SEQ ID NO. 6), or functionally related derivatives thereof.
# [3] = system: angiogenesis in C6 tumors; assay: Angiogenesis: microvessel count in C6 tumors; type: in vivo, nude mice
# Experimental: On the indicated termination day of each nude mouse experiment described above, (see also Table 2), the tumors are extracted and half frozen at −70° C., and half is fixed in 10% neutral buffered formalin for 6 hrs. After fixation the tissue samples are processed into paraffin blocks. Four micrometer-thick tissue sections are obtained from the paraffin blocks and stained with hematoxylin and eosin (H&E) (Richard-Allan Scientific, Kalamazoo, Mich.) using standard histologic techniques. Tissue sections are also subjected to immunostaining for Factor VIII using the avidin biotin peroxidase complex technique (Vectastatin Elite ABC Kit, Vector, Burlingame, Calif.). Rabbit polyclonal FVIII antibody (Von Willebrand Factor, Dako Corporation, Carpinteria, Calif.) is used at 1:400 dilution, following microwave antigen retrieval (4 cycles of 5 minutes each on high in 0.1M citrate buffer).
# [4] = biological target: EGF (epidermal growth factor) (Homo sapiens, UniProt P01133); assay: Binding to EGF by gel electrophoresis
# Chain of EGF (epidermal growth factor) (P01133 971-1023 limits assumed, species assumed): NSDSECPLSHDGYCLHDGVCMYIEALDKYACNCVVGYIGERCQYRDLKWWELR
# [5] = system: Erk1/Erk2 activation in U87MG tumors; assay: Phosphorylated/activated Erk1/Erk2 in U87MG tumors in vivo; set-up: species or system nude mice; conditions: day 32, 100 and 200 mg per kg
# Experimental: U87MG cells (human glioblastoma) are harvested, resuspended in PBS and injected s.c. into the right and left flank (10×10^6 cells per flank) of 8 week old female nude mice (Charles River, Wilmington, Mass.). When tumors reached about 100 mm^3, animals are dosed i.p. with 0.2 ml once daily. Control animals received a saline vehicle whereas treated animals are injected with GFB-111 (50, 100 or 200 mg/kg/day). The tumor volumes are determined by measuring the length (l) and the width (w) and calculating the volume (V=lw^2/2) as described previously. For detection of phosphorylated/activated Erk1/Erk2 in tumors in vivo, the tumors are extracted 20 min after the last GFB-111 injection on day 32, rinsed and the tissue homogenized in HEPES lysis buffer (30 mM Hepes, pH 7.5, 1% T-X-100, 10% glycerol, 10 mM NaCl, 5 mM MgCl2, 25 mM NaF, 1 mM EGTA, 2 mM Na3VO4, 10 μg/ml trypsin inhibitor, 25 μg/ml leupeptin, 10 μg/ml aprotinin, 2 mM PMSF). The lysates (50-100 μg) are electrophoresed on a 15% SDS-PAGE, transferred to nitrocellulose membranes and immunoblotted, with anti-phospho-p44/p42 MAPK (Thy202/Tyr204).
# VEGF = biological target: T1, VEGF (Homo sapiens, UniProt P15692); assay: Inhibition of [125I]-VEGF binding to NIH 3T3 cells overexpressing VEGFR (Flk-1)
# T1 construct: host or cells: NIH 3T3 cells overexpressing Flk-1 carry the receptor
# T1 sequence (P15692 27-191 isoform P15692-4, species assumed): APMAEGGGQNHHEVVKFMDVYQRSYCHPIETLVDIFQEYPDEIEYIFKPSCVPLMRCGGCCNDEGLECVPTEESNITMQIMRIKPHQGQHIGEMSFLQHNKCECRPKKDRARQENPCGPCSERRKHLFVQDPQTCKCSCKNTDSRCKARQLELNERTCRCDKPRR
# Experimental: NIH 3T3 (PDGF) or NIH 3T3 cells overexpressing either EGFR (EGF), IGFR (IGF) or Flk-1 (VEGF), are incubated with [^125I]-PDGF, [^125I]-EGF, [^125I]-IGF or [^125I]-VEGF, respectively (50,000 cpm per well) and increasing concentrations of GFB-111 or GFB-116. Cells are incubated at 4° C. for 1-3 h. After discarding media, the cells are washed 3 times with PBS and three times with Tris 25 mM pH 8.0, 1% T-X-100, 10% glycerol, 1% SDS. Lysates plus wash are counted. Excess of cold growth factors is used to obtain non-specific binding levels.
# Whether GFB 111 can block [^125I]-PDGF-BB specific binding in NIH 3T3 cells is determined by pre-treatment of the PDGF-BB with increasing concentrations of GFB-111. FIG. 2C illustrates that in the absence of GFB-111, [^125I]-PDGF-BB is bound by NIH3T3 cells. However, pre-treatment with increasing concentrations of GFB-111, results in a concentration-dependent decrease in PDGF-BB binding.
# [6] = system: IGF-1-stimulated DNA synthesis; assay: IGF-1-stimulated DNA synthesis ([3H]-thymidine incorporation) in NIH 3T3 overexpressing IGFR; type: cell-based; conditions: concentrations as high as 100 μM
# Experimental: Starved NIH 3T3 or NIH 3T3 overexpressing IGFR are treated for 16 hours with indicated concentrations of GFB-111 and either 10 ng/ml PDGF or 50 ng/ml IGF-1, respectively, then labeled for 2 hr (NIH 3T3) or 4 hr (IGFR) with ^3H-thymidine. Cells are then washed in PBS, lysed in 0.1N NaOH and spotted onto glass fiber filters. DNA is precipitated with ice cold ethanol then ^3H-thymidine incorporation quantified by scintillation counting.
# The selectivity of PDGF-induced cellular responses, is evaluated by the selectivity of GFB-111 to inhibit growth factor-stimulated DNA synthesis using a [^3H]-thymidine incorporation assay. […] In contrast GFB-111 is ineffective at inhibiting IGF-1-stimulated DNA synthesis at concentrations as high as 100 μM (FIG. 4).
# [7] = Flk-1/3T3, VEGF stimulated, read-out: (IC50) Inhibition Flk-1-Y-P
Compound,Inhibition of PDGF-stimulated PDGFR tyrosine phosphorylation [1],"IC50 [2, 7] [µM]","Microvessel count (Mean ± SD) 250X ([3]; C6 tumor, 50 mpk)","Microvessel count (Mean ± SD) 400X ([3]; C6 tumor, 50 mpk)",Inhibition of angiogenesis ([3]; C6 tumors),Binding to EGF [4],Erk1/Erk2 activation in the tumors [5],inhibition at 10 µM (VEGF) [%],Inhibition of IGF-1-stimulated DNA synthesis [6],IC50 ([2]; read-out: IC50 VEGF-stimulated Flk-1 tyrosine phosphorylation and MAPK activation) [µM]
GKGK [GFB-116],does not inhibit,0.3,–,–,–,–,–,–,–,–
CCCCOc1c2cc(C(=O)Nc3cc4cc(c3)C(=O)NCC(=O)N[C@@H](CC(=O)O)C(=O)NCC(=O)N[C@@H](Cc3ccc(O)cc3)C(=O)NC4)cc1Cc1cc(C(=O)Nc3cc4cc(c3)C(=O)NCC(=O)N[C@@H](CC(=O)O)C(=O)NCC(=O)N[C@@H](Cc3ccc(O)cc3)C(=O)NC4)cc(c1OCCCC)Cc1cc(C(=O)Nc3cc4cc(c3)C(=O)NCC(=O)N[C@@H](CC(=O)O)C(=O)NCC(=O)N[C@@H](Cc3ccc(O)cc3)C(=O)NC4)cc(c1OCCCC)Cc1cc(C(=O)Nc3cc4cc(c3)C(=O)NCC(=O)N[C@@H](CC(=O)O)C(=O)NCC(=O)N[C@@H](Cc3ccc(O)cc3)C(=O)NC4)cc(c1OCCCC)C2 [GFB-111],–,5,14.27 ± 4.79,7.97 ± 2.83,to a lesser degree,does not bind,blocked,50,ineffective,10
